Consider three molecules from patent US20260047583A1, “Bacillus Strain and Variants Thereof for Inhibition of Plant Diseases” (CHR. HANSEN A/S, priority 2022, published 2026).

One experiment has as its system F. culmorum. The experiment in a line: Inhibitory effect of pure lipopeptides and their combinations on growth in PDB, OD 600 nm. The format is cell-based, Fusarium culmorum. How it is done:
(§1) Increasing concentrations of pure stocks of surfactin (Sigma S3523, FIG. 3A), fengycin (Sigma SMB00292, FIG. 3B) or iturin (Sigma 11774, FIG. 3C) were added to 48-well microtiter plates containing PDB medium and a fixed fungal spore concentration. Inhibitory effect over two different phytopathogenic species was assayed, F. culmorum (FIG. 3, left) and P. irregulare (FIG. 3, right). Plates were incubated at 25° C. without shaking for 60 hours (in dark conditions) and fungal growth was measured by spectrophotometry at 600 nm. Experiments were carried out in biological duplicates with no major variations in inhibition potency of the tested strains.
(§2) Fungal growth inhibition of increasing concentrations of single compounds was compared with compound combinations, where a fixed concentration of one of them was assayed in combination with increasing concentrations of the second metabolite.

A further experiment concerns P. irregulare. The experiment is described as above. The format is cell-based, Pythium irregulare. How it is done:
as §1, §2

Where [1] appears, read: even at high concentrations (200-400 μg/ml), FIG. 3A.
Setting [2] is: in the presence of surfactin, FIG. 4.

Residues, ends and D or L forms follow the SMILES beside them.

On to `CC(C)CCCCCCCCC[C@@H]1CC(=O)N[C@@H](CCC(=O)O)C(=O)N[C@@H](CC(C)C)C(=O)N[C@H](CC(C)C)C(=O)N[C@@H](C(C)C)C(=O)N[C@@H](CC(=O)O)C(=O)N[C@H](CC(C)C)C(=O)N[C@@H](CC(C)C)C(=O)O1` [surfactin] (HELM PEPTIDE1{E.L.[dL].V.D.[dL].L}|CHEM1{[CC(C)CCCCCCCCC[C@H](CC(=O)[*:1])O[*:2]]}$PEPTIDE1,CHEM1,1:R1-1:R1|PEPTIDE1,CHEM1,7:R2-1:R2$$$V2.0), for which the “inhibitory effect on growth” value in the experiment with F. culmorum (setting [1]) and in the experiment with P. irregulare (setting [1]) was “very modest” throughout.
As to iturin, the “effective concentration for growth inhibition” value in the experiment with F. culmorum (60 h, 25° C., FIG. 3C) came to 9 µg/mL; in the experiment on P. irregulare (60 h, 25° C., FIG. 3C), 9 µg/mL.
As to fengycin, the “increase of bioactivity of fengycin in the presence of surfactin” value in the experiment on F. culmorum (setting [2]) and in the experiment on P. irregulare (setting [2]) was “up to 6 fold” throughout. The “effective concentration of fengycin required to inhibit growth” value with P. irregulare (at surfactin concentrations of 100-200 μg/ml) was 12.5 µg/mL.
